Drawing on PubChem BioAssay AID463206 (Broad Institute, 2010), this text covers AC50 for 82 compounds.

Activity calls are given as the source filed them.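 How the source made its calls: active means caspase luminescence falls with dose and the half-maximal concentration AC50 from the fitted curve is at or below a set limit; inconclusive means flat fit at 30 to 70% signal loss, or invalid fit; inactive means AC50 above the limit, or signal rises instead.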

This experiment deals with INS-1E cytokine-induced caspase-3/7, Caspase-Glo luminescence, 48 h. Put plainly: suppression of cytokine-driven beta-cell apoptosis – INS-1E rat cells, luminescence, orthogonal assay for beta-cell apoptosis protection project, dose response (AID 463206).

As usually defined, the AC50 is the midpoint of the concentration-response curve, whichever way the signal moves.

Consider `OC(COC(c1ccc(F)cc1)c1ccc(F)cc1)CN1CCc2ccccc2C1` (configuration not stated), for which the AC50 is > 26 µM (inactive). Turning to `CCN(CC)c1ccc(N=Cc2ccc([N+](=O)[O-])o2)cc1`, the AC50 was > 26 µM (inactive). In the case of `CCN(CC)S(=O)(=O)c1cccc(NC(=O)Nc2cccc(C(F)(F)F)c2)c1`, the AC50 is > 26 µM (inactive).

As for `Cc1nc(NC(=O)C23CC4CC(CC(C4)C2)C3)sc1Cc1ccc2c(c1)OCO2`, the AC50 is > 26 µM (inactive). In the case of `O=C(Nc1ccc(Cl)c(Cl)c1)Nc1nnc(CC2=CCCCC2)s1`, the AC50 is > 26 µM (inactive). The same measure for `CCN(CC)c1ccc(/C=N/NC(=O)Cc2cccs2)c(O)c1`: > 26 µM (inactive); for `CCC(C)c1ccc(NC(=S)NC2CCN(Cc3ccccc3)CC2)cc1` (configuration not stated): > 26 µM (inactive); for `COC(=O)[C@H](Cc1ccccc1)N(Cc1ccccc1)S(=O)(=O)N(Cc1ccccc1)[C@@H](Cc1ccccc1)C(=O)OC`: > 26 µM (inactive).

Take `O=C(C1CCC1)N1CCc2cc(S(=O)(=O)Nc3ccc4c(c3)OCCO4)ccc21`: the AC50 was > 26 µM (inactive).

Regarding `COc1ccc(-[n+]2c(C)cc(/C=C3\Sc4ccccc4N3C)cc2C)cc1`, the AC50 was > 26 µM (inactive). Take `CNC(=O)c1cc(Oc2ccc(NC(=O)Nc3ccc(Cl)c(C(F)(F)F)c3)cc2)ccn1`: the AC50 is > 26 µM (inactive). For `O=C(CSc1nc2ccccc2c(=O)n1-c1ccccc1)N1CCc2ccccc2C1`, the AC50 is > 26 µM (inactive). For the compound `Cc1ccc(C(=O)OCn2ncc(Cl)c(Cl)c2=O)cc1`, the AC50 is > 26 µM (inactive).

Turning to `Nc1ccc(N2CCCCC2)cc1N1CCCCC1`, the AC50 was > 26 µM (inactive). The same measure for `Cc1ccc(C(C)C)c(OCc2nn(CC(=O)c3ccc(Cl)cc3)c3[n+]2CCCCC3)c1`: > 26 µM (inactive); for `CCCOc1nc2c(c(=O)n(C)c(=O)n2C)n1Cc1cccc2ccccc12`: > 26 µM (inactive). The same measure for `CCn1c(NN=O)nc2ccccc21`: > 26 µM (inactive). Then `CCC(=O)NC(c1cc(Cl)c2cccnc2c1O)C(C)C` (configuration not stated), with > 26 µM (inactive); and `Cc1ccc(N2C(=O)NC(=O)/C(=C\C=C\c3ccco3)C2=O)cc1C`, with > 26 µM (inactive); and `Cc1ccc2c(c1)S/C(=C/c1ccc[n+](C)c1)N2CCO`, with > 26 µM (inactive). Take `CCN(CC)c1ccc(CNc2nc3ccccc3n2CCN2CCCCC2)cc1`: the AC50 is > 26 µM (inactive). Consider `O=C(NC(=S)NNC(=O)c1cnccn1)c1ccc(F)cc1`, for which the AC50 was > 26 µM (inactive). The same measure for `Cc1cc(C)c2nc(NNC(=O)c3ccc(S(=O)(=O)N4CC(C)CC(C)C4)cc3)sc2c1` (configuration not stated): > 26 µM (inactive); for `COC1=C(Nc2ccccc2)C(=O)c2ccccc2C1=O`: > 26 µM (inactive). Turning to `Cc1ccnc2c1ccc1c(C)ccnc12`, the AC50 is > 26 µM (inactive). The same measure for `Cc1nc(N/N=C/c2ccccn2)sc1C`: > 26 µM (inactive); for `O=[N+]([O-])c1ccc(/C=N/Nc2ccnc3cc(Cl)ccc23)o1`: 19.8 µM; for `CCC(CNc1cc(OC)cc2cccnc12)NC1CCCCC1` (configuration not stated): > 26 µM (inactive).

Take `S=C(c1cn(CCOc2cccc3ccccc23)c2ccccc12)N1CCCC1`: the AC50 was > 26 µM (inactive). Then `Cc1cccc(/C=C/C(=O)c2ccc([N+](=O)[O-])o2)c1`, with > 26 µM (inactive).

On to `CC1=NNC(=O)/C1=C\c1cn(-c2ccccc2)nc1-c1cccs1`, for which the AC50 was > 26 µM (inactive). Then `CC(C)CC(=O)NC(c1cccs1)c1ccc2cccnc2c1O` (configuration not stated), with > 26 µM (inactive). Then `CCCCCCC[N+](CC)(CC)CCCCc1ccc(Cl)cc1`, with > 26 µM (inactive); and `CC(C)CC[n+]1ccn(C2=C([O-])c3ccccc3C(=O)/C2=N\S(=O)(=O)c2ccccc2)c1`, with > 26 µM (inactive). The same measure for `Cc1ccc2c(c1)[nH]c1c(N3CCN(Cc4ccccc4)CC3)ncnc12`: > 26 µM (inactive).

With `CC1(C(=O)OCC(=O)N2c3ccccc3Sc3ccccc32)CC1(Cl)Cl` (configuration not stated), the AC50 is > 26 µM (inactive).

Consider `Cc1cc(C)nc(N/N=C/c2cc(Br)ccc2O)n1`, for which the AC50 was > 26 µM (inactive).

Consider `CCCCC(=O)NC(c1ccc(Cl)cc1)c1ccc2cccnc2c1O` (configuration not stated), for which the AC50 is > 12 µM (inactive). With `Cc1cc(O)c2c(c1)C(=O)C13C(=C2O)C(=O)[C@H]2[C@@H](O)[C@@H]1[C@H]1[C@H](O)[C@@H]3C(=O)C3=C(O)c4c(O)cc(C)cc4C(=O)C312` (some centres not stated), the AC50 was 21.6 µM.

In the case of `Cc1ccc(-c2ccc(/C=C3\C(=O)ON=C3c3ccccc3)o2)c([N+](=O)[O-])c1`, the AC50 was > 26 µM (inactive). The same measure for `CC(=O)Nc1ccc(S(=O)(=O)NC2=C(N3CCN(C)CC3)C(=O)c3ccccc3C2=O)cc1`: > 26 µM (inactive); for `CCN(CC)c1ccc(/C=N/NC(=O)CNC(=O)C2COc3ccccc3O2)c(O)c1` (configuration not stated): > 26 µM (inactive). As to `COC(=O)C1CCN(C(=O)c2cc(-c3ccc(Cl)s3)nc3ccccc23)CC1`, the AC50 was > 26 µM (inactive). The same measure for `Cc1sc2ncnc(NCc3cccs3)c2c1C`: > 26 µM (inactive); for `O=C1C=C(Nc2ccc(F)cc2)c2ccccc2C1=O`: > 26 µM (inactive). The same measure for `CN(/N=C/c1cc(Br)cc(Br)c1O)c1cccc(C(F)(F)F)n1`: > 12 µM (inactive); for `Cc1cc(C)c[n+](C2=C([O-])c3ccccc3C(=O)/C2=N\S(=O)(=O)c2cccs2)c1`: > 26 µM (inactive).

As for `O=C(CN1CCOCC1)N/N=C/c1c(O)ccc2ccccc12`, the AC50 was > 26 µM (inactive). Then `CCN1C/C(=C/c2ccc(OC)c(O)c2)C(=O)/C(=C/c2ccc(OC)c(O)c2)C1`, with > 26 µM (inactive); and `Cc1sc2ncnc(N/N=C/c3ccccc3O)c2c1C`, with > 26 µM (inactive); and `CC(C)(C)c1cc[n+](C2=C([O-])c3ccccc3C(=O)/C2=N\S(=O)(=O)c2ccccc2)cc1`, with > 26 µM (inactive). As for `CCCC12C(=O)C(C)(C(c3ccccc3)=C1c1ccccc1)C1C(=O)N(c3ccc(C)cc3)C(=O)C12` (configuration not stated), the AC50 was > 26 µM (inactive). `C/C(=N\NC(=O)c1ccc(NS(=O)(=O)c2cccs2)cc1)c1ccccn1`: the AC50 was > 12 µM (inactive). Then `C(#Cc1ccccc1)C[N+]1(CC#Cc2cccc3ccccc23)CCCC1`, with > 26 µM (inactive); and `CC(C)(C)c1cc(C(=O)N/N=C/c2ccccc2O)n(-c2ccccc2)n1`, with > 26 µM (inactive); and `O=S(=O)(c1ccc2c(c1)OCCO2)N1CCN(c2ncnc3sccc23)CC1`, with > 26 µM (inactive). Then `CCOc1ccc(S(=O)(=O)N(C(=O)c2ccco2)c2cc3sc(=O)oc3c3ccccc23)cc1`, with > 26 µM (inactive); and `Cc1cc(C)nc(OC(=O)c2ccc(Cl)cc2Cl)n1`, with > 26 µM (inactive). `Cc1cccnc1CN1CCN(C(=O)c2cc(COc3ccc4ncccc4c3)on2)CC1`: the AC50 is > 26 µM (inactive).

Turning to `Cc1cc([N+](=O)[O-])c2ccccc2[n+]1[O-]`, the AC50 is > 26 µM (inactive).

For the compound `CCOC(=O)c1sc(NC(=O)Nc2cccc(Cl)c2)cc1C`, the AC50 is > 26 µM (inactive). Then `CCOc1ccc(/C=N/Nc2ccc(Cl)nn2)c(O)c1`, with > 26 µM (inactive); and `CC(C)c1cccc(C(C)C)c1OC(=O)[C@H]1OC(C(C)(C)C)=C[C@@H]1c1ccccc1`, with > 26 µM (inactive); and `COc1ccc(/C(C)=N/Nc2nc(C)cc(-c3ccccc3)n2)cc1`, with > 26 µM (inactive). For the compound `COc1cc2sc(-c3ccccc3OC)c(-c3ccc(OCCN4CCCCC4)cc3)c2cc1OC`, the AC50 is 16 µM.

Take `N/C(=N\OC(=O)c1cccc(Cn2cc(C(F)(F)F)ccc2=O)c1)c1ccc(Cl)cc1`: the AC50 is > 26 µM (inactive). In the case of `CCCOC(=O)c1ccc(-[n+]2c(-c3ccccc3)cc(-c3ccccc3)cc2-c2ccccc2)cc1`, the AC50 is > 26 µM (inactive). The same measure for `COc1ccc(-c2c[n+]3c(n2-c2ccc(C)cc2)CCCCC3)cc1`: > 26 µM (inactive). As to `O=[N+]([O-])c1ccccc1-c1cc(-c2ccccc2)cc(-c2ccccc2)[n+]1Cc1ccccc1Cl`, the AC50 is > 26 µM (inactive). Turning to `CCC(Sc1nc(C)cc(C)n1)C(=O)NC1=NN=C(c2ccc(C)cc2)CS1` (configuration not stated), the AC50 is > 26 µM (inactive).

For the compound `COc1cc([N+](=O)[O-])cc(/C=N/NC(=O)c2cc(-c3ccccc3)nc3ccccc23)c1O`, the AC50 is > 26 µM (inactive).

As to `CCC1(c2ccc(F)cc2)NC(=O)N(CC(=O)Nc2ccc(-c3nc4ccc(C)cc4s3)cc2)C1=O` (configuration not stated), the AC50 was > 26 µM (inactive). The same measure for `C#CCn1c(=NC(=O)c2ccc(S(=O)(=O)N3CCc4ccccc4C3)cc2)sc2cc(S(N)(=O)=O)ccc21`: > 26 µM (inactive); for `Cc1ccccc1N1CCN(Cc2c[nH]c3ccccc23)CC1`: > 26 µM (inactive). For the compound `COc1ccc(CN(C)C(=O)c2ccc(NS(=O)(=O)c3ccc(F)cc3)cc2)c(OC)c1OC`, the AC50 is > 26 µM (inactive). Take `C#CCOCCOCCOCCNc1nc(N2CCN(C(=O)CCCCCCCCCCNC(=O)Cn3cc(CCCCCN)nn3)CC2)nc(N2CCN(C(=O)CCCCCCCCCCNC(=O)[C@H]([C@@H](C)CC)n3cc(CCCCN=C(N)N)nn3)CC2)n1`: the AC50 is > 26 µM (inactive). The same measure for `Cn1c(=O)[nH]c(=O)c2c1nc([N+](=O)[O-])n2Cc1ccccc1`: > 26 µM (inactive); for `Oc1c(C(c2ccccc2Cl)N2CCCC2)ccc2cccnc12` (configuration not stated): > 26 µM (inactive). Then `COc1cccc(/C=N/NC(=O)c2ccc(-c3ccccc3)cc2)c1O`, with > 26 µM (inactive); and `CC(C)OCCCNC(=S)N1CCC(C(=O)c2ccc(Cl)cc2)CC1`, with > 26 µM (inactive); and `CCN(CC)c1ccc(N=Cc2ccccc2[N+](=O)[O-])cc1`, with > 26 µM (inactive). In the case of `CCNC(=O)Nc1cc(S(=O)(=O)Nc2ccc(OC)cc2)ccc1N1CCOCC1`, the AC50 is > 26 µM (inactive).
